What is called EC50 is the concentration at which the effect is half-maximal.

SMILES strings stand for the structures. Bridge positions count the residues as written; N and C are the ends. Square brackets hold non-standard residues; d marks the D form. Peptide text beside a SMILES is read from it. Phe(4-Br) = N[C@@H](Cc1ccc(Br)cc1)C(=O)O; Phe(4-Cl) = N[C@@H](Cc1ccc(Cl)cc1)C(=O)O; 1Nal = N[C@@H](Cc1cccc2ccccc12)C(=O)O; 2Nal = N[C@@H](Cc1ccc2ccccc2c1)C(=O)O; Phe(2-F) = N[C@@H](Cc1ccccc1F)C(=O)O; Cit = NC(=O)NCCC[C@H](N)C(=O)O; NMeA = CN[C@@H](C)C(=O)O; Sar = CNCC(=O)O

Data on ten molecules can be found in BindingDB's records for doi:10.1016/j.bmcl.2018.08.004 (Beijing Institute of Pharmacology and Toxicology, 2018).

This assay is described as follows: Agonist activity at EPO receptor in human TF1 cells assessed as induction of cell proliferation after 48 hrs by MTT assay. (Tetrazolium dyes change colour on reduction, which living cells bring about.)
As for `CC[C@H](C)[C@@H]1NC(=O)[C@@H]2CCCN2C(=O)CNC(=O)[C@H](CCSC)NC(=O)[C@H](Cc2cnc[nH]2)NC(=O)[C@@H](NC(=O)[C@H](C)NC(=O)[C@H](Cc2ccc(O)cc2)NC(=O)[C@H](CC(C)C)NC(=O)CNC(=O)CNC(C)=O)CSSC[C@@H](C(=O)N[C@@H](CCC(N)=O)C(=O)N2CCC[C@H]2C(=O)N[C@@H](CC(C)C)C(=O)N[C@@H](CCCNC(=N)N)C(=O)N(C)CC(=O)N[C@@H](CCCCN)C(N)=O)NC(=O)[C@H](C(C)C)NC(=O)[C@H](Cc2cccc3ccccc23)NC(=O)[C@H]([C@@H](C)O)NC1=O`, the EC50 was determined as 11 nM.
`CC[C@H](C)[C@@H]1NC(=O)[C@@H]2CCCN2C(=O)CNC(=O)[C@H](CCSC)NC(=O)[C@H](Cc2cnc[nH]2)NC(=O)[C@@H](NC(=O)[C@H](C)NC(=O)[C@H](Cc2ccc(O)cc2)NC(=O)[C@H](CC(C)C)NC(=O)CNC(=O)CNC(C)=O)CSSC[C@@H](C(=O)N[C@@H](CCC(N)=O)C(=O)N(C)[C@@H](C)C(=O)N[C@@H](CC(C)C)C(=O)N[C@@H](CCCNC(=N)N)C(=O)N(C)CC(=O)N[C@@H](CCCCN)C(N)=O)NC(=O)[C@H](C(C)C)NC(=O)[C@H](Cc2cccc3ccccc23)NC(=O)[C@H]([C@@H](C)O)NC1=O` (Ac-GGLYACHMGPIT[1Nal]VCQ[NMeA]LR[Sar]K-NH2; disulfide 6-15): the EC50 amounted to 12 nM.
Turning to `CC[C@H](C)[C@@H]1NC(=O)[C@H](C)N(C)C(=O)CNC(=O)[C@H](CCSC)NC(=O)[C@H](Cc2cnc[nH]2)NC(=O)[C@@H](NC(=O)[C@H](C)NC(=O)[C@H](Cc2ccc(O)cc2)NC(=O)[C@H](CC(C)C)NC(=O)CNC(=O)CNC(C)=O)CSSC[C@@H](C(=O)N[C@@H](CCC(N)=O)C(=O)N2CCC[C@H]2C(=O)N[C@@H](CC(C)C)C(=O)N[C@@H](CCCNC(=N)N)C(=O)N(C)CC(=O)N[C@@H](CCCCN)C(N)=O)NC(=O)[C@H](C(C)C)NC(=O)[C@H](Cc2cccc3ccccc23)NC(=O)[C@H]([C@@H](C)O)NC1=O` (Ac-GGLYACHMG[NMeA]IT[1Nal]VCQPLR[Sar]K-NH2; disulfide 6-15), the EC50 turned out to be 26 nM.
As to `CC[C@H](C)[C@@H]1NC(=O)[C@@H]2CCCN2C(=O)CNC(=O)[C@H](CCSC)NC(=O)[C@H](Cc2cnc[nH]2)NC(=O)[C@@H](NC(=O)[C@H](C)NC(=O)[C@H](Cc2ccc(O)cc2)NC(=O)[C@H](CC(C)C)NC(=O)CNC(=O)CNC(C)=O)CSSC[C@@H](C(=O)N[C@@H](CCC(N)=O)C(=O)N(C)CC(=O)N[C@@H](CC(C)C)C(=O)N[C@@H](CCCNC(=N)N)C(=O)N(C)CC(=O)N[C@@H](CCCCN)C(N)=O)NC(=O)[C@H](C(C)C)NC(=O)[C@H](Cc2cccc3ccccc23)NC(=O)[C@H]([C@@H](C)O)NC1=O` (Ac-GGLYACHMGPIT[1Nal]VCQ[Sar]LR[Sar]K-NH2; disulfide 6-15), the EC50 turned out to be 42 nM.
The value for `CC[C@H](C)[C@@H]1NC(=O)CN(C)C(=O)CNC(=O)[C@H](CCSC)NC(=O)[C@H](Cc2cnc[nH]2)NC(=O)[C@@H](NC(=O)[C@H](C)NC(=O)[C@H](Cc2ccc(O)cc2)NC(=O)[C@H](CC(C)C)NC(=O)CNC(=O)CNC(C)=O)CSSC[C@@H](C(=O)N[C@@H](CCC(N)=O)C(=O)N2CCC[C@H]2C(=O)N[C@@H](CC(C)C)C(=O)N[C@@H](CCCNC(=N)N)C(=O)N(C)CC(=O)N[C@@H](CCCCN)C(N)=O)NC(=O)[C@H](C(C)C)NC(=O)[C@H](Cc2cccc3ccccc23)NC(=O)[C@H]([C@@H](C)O)NC1=O` (Ac-GGLYACHMG[Sar]IT[1Nal]VCQPLR[Sar]K-NH2; disulfide 6-15) was 31 nM; that for `CC[C@H](C)[C@@H]1NC(=O)[C@@H]2CCCN2C(=O)CNC(=O)[C@H](CCSC)NC(=O)[C@H](Cc2cnc[nH]2)NC(=O)[C@@H](NC(=O)[C@H](C)NC(=O)[C@H](Cc2ccc(O)cc2)NC(=O)[C@H](CC(C)C)NC(=O)CNC(=O)CNC(C)=O)CSSC[C@@H](C(=O)N[C@@H](CCC(N)=O)C(=O)N2CCC[C@H]2C(=O)N[C@@H](CC(C)C)C(=O)N[C@@H](CCCNC(=N)N)C(=O)N(C)CC(=O)N[C@@H](CCCCN)C(N)=O)NC(=O)[C@H](C(C)C)NC(=O)[C@H](Cc2ccccc2F)NC(=O)[C@H]([C@@H](C)O)NC1=O` (Ac-GGLYACHMGPIT[Phe(2-F)]VCQPLR[Sar]K-NH2; disulfide 6-15) was 540 nM; that for `CC[C@H](C)[C@@H]1NC(=O)[C@@H]2CCCN2C(=O)CNC(=O)[C@H](CCSC)NC(=O)[C@H](Cc2cnc[nH]2)NC(=O)[C@@H](NC(=O)[C@H](C)NC(=O)[C@H](Cc2ccc(O)cc2)NC(=O)[C@H](CC(C)C)NC(=O)CNC(=O)CNC(C)=O)CSSC[C@@H](C(=O)N[C@@H](CCC(N)=O)C(=O)N2CCC[C@H]2C(=O)N[C@@H](CC(C)C)C(=O)N[C@@H](CCCNC(=N)N)C(=O)N(C)CC(=O)N[C@@H](CCCCN)C(N)=O)NC(=O)[C@H](C(C)C)NC(=O)[C@H](Cc2ccc(Br)cc2)NC(=O)[C@H]([C@@H](C)O)NC1=O` (Ac-GGLYACHMGPIT[Phe(4-Br)]VCQPLR[Sar]K-NH2; disulfide 6-15) was 540 nM.
Consider `CC[C@H](C)[C@@H]1NC(=O)[C@@H]2CCCN2C(=O)CNC(=O)[C@H](CCSC)NC(=O)[C@H](Cc2cnc[nH]2)NC(=O)[C@@H](NC(=O)[C@H](C)NC(=O)[C@H](Cc2ccc(O)cc2)NC(=O)[C@H](CC(C)C)NC(=O)CNC(=O)CNC(C)=O)CSSC[C@@H](C(=O)N[C@@H](CCC(N)=O)C(=O)N2CCC[C@H]2C(=O)N[C@@H](CC(C)C)C(=O)N[C@@H](CCCNC(=N)N)C(=O)N(C)CC(=O)N[C@@H](CCCCN)C(N)=O)NC(=O)[C@H](C(C)C)NC(=O)[C@H](Cc2ccc3ccccc3c2)NC(=O)[C@H]([C@@H](C)O)NC1=O` (Ac-GGLYACHMGPIT[2Nal]VCQPLR[Sar]K-NH2; disulfide 6-15), for which the EC50 amounted to 540 nM.
As for `CC[C@H](C)[C@@H]1NC(=O)[C@@H]2CCCN2C(=O)CNC(=O)[C@H](CCSC)NC(=O)[C@H](Cc2cnc[nH]2)NC(=O)[C@@H](NC(=O)[C@H](C)NC(=O)[C@H](Cc2ccc(O)cc2)NC(=O)[C@H](CC(C)C)NC(=O)CNC(=O)CNC(C)=O)CSSC[C@@H](C(=O)N[C@@H](CCC(N)=O)C(=O)N2CCC[C@H]2C(=O)N[C@@H](CC(C)C)C(=O)N[C@@H](CCCNC(=N)N)C(=O)N(C)CC(=O)N[C@@H](CCCCN)C(N)=O)NC(=O)[C@H](C(C)C)NC(=O)[C@H](Cc2ccc(Cl)cc2)NC(=O)[C@H]([C@@H](C)O)NC1=O` (Ac-GGLYACHMGPIT[Phe(4-Cl)]VCQPLR[Sar]K-NH2; disulfide 6-15), the EC50 amounted to 240 nM.
Turning to `CC[C@H](C)[C@@H]1NC(=O)[C@@H]2CCCN2C(=O)CNC(=O)[C@H](CCSC)NC(=O)[C@H](Cc2cnc[nH]2)NC(=O)[C@@H](NC(=O)[C@H](C)NC(=O)[C@H](Cc2ccc(O)cc2)NC(=O)[C@H](CC(C)C)NC(=O)CNC(=O)CNC(C)=O)CSSC[C@@H](C(=O)N[C@@H](CCC(N)=O)C(=O)N2CCC[C@H]2C(=O)N[C@@H](CC(C)C)C(=O)N[C@@H](CCCNC(N)=O)C(=O)N(C)CC(=O)N[C@@H](CCCCN)C(N)=O)NC(=O)[C@H](C(C)C)NC(=O)[C@H](Cc2cccc3ccccc23)NC(=O)[C@H]([C@@H](C)O)NC1=O` (Ac-GGLYACHMGPIT[1Nal]VCQPL[Cit][Sar]K-NH2; disulfide 6-15), the EC50 worked out at 31 nM.
